Data from PubChem BioAssay (NCI).
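Growth conditions: 96-well plates. Treatment: test compound, 48 hours, 5 concentrations. Analysis: linear interpolation between bracketing concentrations; unreached endpoints set to highest concentration. TGI is the concentration that stops growth completely.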

Assays:
Assay in all cases: inhibition of tumour cell growth, NCI panel, 48 h
HT29 colon = system: HT29 colon
HCT-116 colon = system: HCT-116 colon
EKVX NSCLC = system: EKVX NSCLC
BT-549 breast = system: BT-549 breast
OVCAR-4 ovarian = system: OVCAR-4 ovarian
NCI-H23 lung = system: NCI-H23 lung
NCI-H522 lung = system: NCI-H522 lung
TK-10 renal = system: TK-10 renal
SN12C renal = system: SN12C renal
SF-539 CNS = system: SF-539 CNS
PC-3 prostate = system: PC-3 prostate
MDA-MB-231 breast = system: MDA-MB-231 breast
A498 renal = system: A498 renal
UACC-62 melanoma = system: UACC-62 melanoma
HOP-92 NSCLC = system: HOP-92 NSCLC
MCF7 breast = system: MCF7 breast
SK-MEL-28 melanoma = system: SK-MEL-28 melanoma
SF-268 CNS = system: SF-268 CNS

| SMILES | TGI (HT29 colon) [µM] | TGI (HCT-116 colon) [µM] | TGI (EKVX NSCLC) [µM] | TGI (BT-549 breast) [µM] | TGI (OVCAR-4 ovarian) [µM] | TGI (NCI-H23 lung) [µM] | TGI (NCI-H522 lung) [µM] | TGI (TK-10 renal) [µM] | TGI (SN12C renal) [µM] | TGI (SF-539 CNS) [µM] | TGI (PC-3 prostate) [µM] | TGI (MDA-MB-231 breast) [µM] | TGI (A498 renal) [µM] | TGI (UACC-62 melanoma) [µM] | TGI (HOP-92 NSCLC) [µM] | TGI (MCF7 breast) [µM] | TGI (SK-MEL-28 melanoma) [µM] | TGI (SF-268 CNS) [µM] |
| --- | --- | --- | --- | --- | --- | --- | --- | --- | --- | --- | --- | --- | --- | --- | --- | --- | --- | --- |
| COC(=O)/C=C(\S/C=C(/c1ccccc1)N1CCn2c(C(=O)c3ccccc3)c(C(=O)OC)c(C(=O)OC)c21)C(=O)OC | > 10 | 5 | > 10 | > 10 | 6.57 | > 10 | 1.73 | 5.61 | > 10 | 3.74 | > 10 | 5.27 | > 10 | > 10 | 4.73 | 4.33 |  |  |
| CC(=O)C(=[N+]=[N-])C(=O)N(C)CCC#N | > 10 | > 10 | > 10 | > 10 |  | > 10 |  | > 10 | > 10 | > 10 | > 10 | > 10 | > 10 | > 10 | > 10 | > 10 | > 10 | > 10 |
| Cc1ccc(NC(=O)/C(=N/N(C)C)C(C2OC(=O)c3ccccc32)[N+](=O)[O-])cc1 (centres undefined) | > 100 | > 100 |  | > 100 | > 100 | > 100 |  | > 100 | > 100 | > 100 | > 100 | > 100 | > 100 | > 100 | > 100 | > 100 | > 100 | > 100 |
| CCN(CC)c1ccc2cc(C(=O)Nc3ccc(C)cc3)c(=N)oc2c1 | > 100 | > 100 | > 100 | > 100 | > 100 | > 100 |  |  | > 100 |  | > 100 | > 100 | > 100 | > 100 | > 100 | > 100 | > 100 | > 100 |
| CCC(O)c1ccc(N=Cc2ccccc2O)cc1 (centres undefined) | > 100 | > 100 | > 100 | > 100 | > 100 | > 100 | > 100 | > 100 |  | > 100 | > 100 | > 100 | > 100 | > 100 | > 100 | > 100 | > 100 | > 100 |
| CN(C(=O)Cc1cc(Cl)c(Cl)cc1NC(=O)CN)[C@H]1CCCC[C@@H]1N1CCCC1 | 58.7 | > 100 | > 100 | > 100 | > 100 | > 100 |  | > 100 | > 100 |  | > 100 | 71.2 | 51.2 | 30.2 | > 100 | > 100 |  | > 100 |
| O=C(Nc1cccc2ccccc12)c1ccccc1 | > 100 | > 100 | > 100 | > 100 | > 100 | > 100 | > 100 | > 100 | > 100 | > 100 | > 100 | > 100 | > 100 | > 100 |  | > 100 | > 100 | > 100 |
| N#CCN(CC#N)C1CC=CCC1N(CC#N)CC#N (centres undefined) | > 100 | > 100 | > 100 | > 100 | > 100 | > 100 | > 100 | > 100 | > 100 | > 100 | > 100 | > 100 |  | > 100 | > 100 | > 100 |  | > 100 |
| COc1ccccc1NCc1cccc2c(=O)c3ccc(Cl)cc3oc12 | > 100 | > 100 | > 100 | > 100 | > 100 | > 100 | > 100 | > 100 | > 100 | > 100 | > 100 | > 100 | > 100 | > 100 | > 100 | > 100 | > 100 |  |
| Cc1ccc(S(=O)(=O)N/N=C2/CC3CCC4CC2CC34)cc1 (centres undefined) | > 100 | > 100 | > 100 | > 100 |  | > 100 | > 100 | > 100 | > 100 | > 100 | > 100 | > 100 | > 100 | > 100 | > 100 | > 100 | > 100 | > 100 |
| O=C(O)c1ccc(Nc2nc3cc(C(F)(F)F)ccc3n3cccc23)cc1 | 30.9 | 68.2 | > 100 | > 100 |  | > 100 | 53.8 | > 100 |  | 74.6 | 93.5 | 49.8 | > 100 | 77.8 | > 100 | > 100 | > 100 | > 100 |
| COC(=O)[C@@H]1CC(C(CN)c2cn(C(=O)OC(C)(C)C)c3ccccc23)C(=O)N1C(=O)OC(C)(C)C (some centres undefined) | 55.2 | > 100 | 53.8 | > 100 | 66.6 | > 100 | 95.8 | > 100 | 32.9 | 28.3 | 80.2 | 58.6 | 37.3 | 28.8 |  | 58.5 | 31.4 | > 100 |
| c1ccc2c(c1)ccn1ccc3c4ccccc4nc-3c21 | 1.58 |  | 1.13 | 3.82 | 1.75 | 2.12 | 1.7 | 4.34 | 2.1 | 1.48 | 1.67 | 2.2 | 0.892 | 3.81 | 4.44 | 1.11 | 1.8 | 2.29 |
| C=CCOc1ccccc1C1(O)c2ccccc2C2=NCCCN21 (centres undefined) | 36.2 | > 100 | > 100 | > 100 | > 100 | > 100 |  | > 100 | > 100 | 39.5 | 57.2 | > 100 | > 100 | > 100 | > 100 | > 100 | 52.2 | > 100 |
